Tested on: HSV-1
Assay: HSV infection of Vero 76 cells, viral DNA detected by hybridization capture with chemiluminescence
Format: cell-based
Details: Human alphaherpesvirus 1; HSV-1 in Vero 76 cells, MOI=0.001, incubated 40–48 hours with test compound
Procedure: Vero 76 cells were maintained in MEM with Earle's salts, L-glutamine, 8% FBS (Hyclone, A-1111-L) and 100 units/mL Penicillin-100 μg/mL Streptomycin. For assay conditions, FBS was reduced to 2%. Cells are seeded into 96-well tissue culture plates at a density of 5×10^4 cells/well after being incubated for 45 min at 37° C. in the presence of HSV-1 or HSV-2 (MOI=0.001). Test compounds are added to the wells and the plates are incubated at 37° C. for 40–48 hours. Cell lysates are prepared as follows: media was removed and replaced with 150 μL/well 0.2 N NaOH with 1% Igepal CA 630 or NP-40. Plates were incubated up to 14 days at room temperature in a humidified chamber to prevent evaporation.
For the detection probe, a gel-purified, digoxigenin-labeled, 710-bp PCR fragment of the HSV UL-15 sequence was utilized. PCR conditions included 0.5 μM primers, 180 μM dTTP, 20 μM dUTP-digoxigenin (Boehringer Mannheim 1558706), 200 μM each of dATP, dCTP, and dGTP, 1×PCR Buffer II (Perkin Elmer), 2.5 mM MgCl2, 0.025 units/μL of AmpliTaq Gold polymerase (Perkin Elmer), and 5 ng of gel-purified HSV DNA per 100 μL Extension conditions were 10 min at 95° C., followed by 30 cycles of 95° C. for 1 min, 55° C. for 30 sec, and 72° C. for 2 min. The amplification was completed with a 10-min incubation at 72° C. Primers were selected to amplify a 728 bp probe spanning a section of the HSV1 UL15 open reading frame (nucleotides 249–977). Single-stranded transcripts were purified with Promega M13 Wizard kits. The final product was mixed 1:1 with a mixture of 6 M GuSCN, 100 mM EDTA and 200 μg/mL herring sperm DNA and stored at 4° C.
The capture DNA plasmid (HSV UL13 region in pUC) was linearized by cutting with XbaI, denatured for 15 min at 95° C. and diluted immediately into Reacti-Bind DNA Coating Solution (Pierce, 17250, diluted 1:1 with TE buffer, pH 8) at 1 ng/μL 75 μL/well were added to Corning (#3922 or 9690) white 96-well plates and incubated at room temperature for at least 4 hrs before washing twice with 300 μL/well 0.2×SSC/0.05% Tween-20 (SSC/T buffer). The plates were then incubated overnight at room temperature with 150 μL/well 0.2 N NaOH, 1% IGEPAL and 10 μg/mL herring sperm DNA.
Twenty-seven (27) μL of cell lysate was combined with 45 μL of hybridization solution (final concentration: 3M GuSCN, 50 mM EDTA, 100 μg/ml salmon sperm DNA, 5×Denhardt's solution, 0.25×APE, and 5 ng of the digoxigenin-labeled detection probe). APE is 1.5 M NH4-acetate, 0.15 M ammonium phosphate monobasic, and 5 mM EDTA adjusted to pH 6.0. Mineral oil (50 μL) was added to prevent evaporation. The hybridization plates were incubated at 95° C. for 10 minutes to denature the DNA, then incubated at 42° C. overnight. The wells were washed 6× with 300 μL/well SSC/T buffer then incubated with 75 μL/well anti-digoxigenin-HRP-conjugated antibody (Boehringer Mannheim 1207733, 1:5000 in TE) for 30 min at room temperature. The wells were washed 6× with 300 μL/well with PBS/0.05% Tween-20 before 75 μL/well SuperSignal LBA substrate (Pierce) was added. The plates were incubated at room temperature for 30 minutes and chemiluminescence was measured in a Wallac Victor reader.

| IC50 [nM] | SMILES |
| --- | --- |
| 600 | Nc1cccn2c(-c3ccnc(NC4CCCC4)n3)c(-c3ccc(F)cc3)nc12 [Example 1, 3-[2-(Cyclopentylamino)-4-pyrimidinyl]-2-(4-fluorophenyl)imidazo[1,2-α]pyridin-8-amine] |
| 3900 | Fc1ccc(-c2nc3c(Cl)cccn3c2-c2ccnc(NC3CCCC3)n2)cc1 [Example 2, 4-[8-Chloro-2-(4-fluorophenyl)imidazo[1,2-α]pyridin-3-yl]-N-cyclopentyl-2-pyrimidinamine] |
| 400 | Fc1ccc(-c2nc3c(NC4CCCC4)cccn3c2-c2ccnc(NC3CCCC3)n2)cc1 [Example 3, N-Cyclopentyl-3-[2-(cyclopentylamino)-4-pyrimidinyl]-2-(4-fluorophenyl)imidazo[1,2-α]pyridin-8-amine] |
| 1400 | Fc1ccc(-c2nc3c(N4CCCC4)cccn3c2-c2ccnc(NC3CCCC3)n2)cc1 [Example 4, N-Cyclopentyl-4-[2-(4-fluorophenyl)-8-(1-pyrrolidinyl)imidazo[1,2-α]pyridin-3-yl]-2-pyrimidinamine] |
| 650 | CCCCNc1cccn2c(-c3ccnc(NC4CCCC4)n3)c(-c3ccc(F)cc3)nc12 [Example 5, N-Butyl-3-[2-(cyclopentylamino)-4-pyrimidinyl]-2-(4-fluorophenyl)imidazo[1,2-α]pyridin-8-amine] |
| 340 | COCCNc1cccn2c(-c3ccnc(NC4CCCC4)n3)c(-c3ccc(F)cc3)nc12 [Example 6, 3-[2-(Cyclopentylamino)-4-pyrimidinyl]-2-(4-fluorophenyl)-N-(2-methoxyethyl)imidazo[1,2-α]pyridin-8-amine] |
| 2400 | CNc1nccc(-c2c(-c3ccc(F)cc3)nc3c(Cl)cccn23)n1 [Example 7, 4-[8-Chloro-2-(4-fluorophenyl)imidazo[1,2-α]pyridin-3-yl]-N-methyl-2-pyrimidinamine] |
| > 5000 | CNc1nccc(-c2c(-c3ccc(F)cc3)nc3c(NC4CCCC4)cccn23)n1 [Example 8, N-Cyclopentyl-2-(4-fluorophenyl)-3-[2-(methylamino)-4-pyrimidinyl]imidazo[1,2-α]pyridin-8-amine] |
| 1200 | COc1ccc(-c2nc3c(Cl)cccn3c2-c2ccnc(NC3CCCC3)n2)cc1 [Example 9, 4-[8-Chloro-2-(4-methoxyphenyl)imidazo[1,2-α]pyridin-3-yl]-N-cyclopentyl-2-pyrimidinamine] |
| 1750 | COc1ccc(-c2nc3c(NC4CCCC4)cccn3c2-c2ccnc(NC3CCCC3)n2)cc1 [Example 10, N-Cyclopentyl-3-[2-(cyclopentylamino)-4-pyrimidinyl]-2-(4-methoxyphenyl)imidazo[1,2-α]pyridin-8-amine] |
| 3300 | Oc1ccc(-c2nc3c(NC4CCCC4)cccn3c2-c2ccnc(NC3CCCC3)n2)cc1 [Example 11, 4-{8-(Cyclopentylamino)-3-[2-(cyclopentylamino)-4-pyrimidinyl]imidazo[1,2-α]pyridin-2-yl}phenol] |
| 2300 | COc1cccc(-c2nc3c(Cl)cccn3c2-c2ccnc(NC3CCCC3)n2)c1 [Example 15, 4-[8-Chloro-2-(3-methoxyphenyl)imidazo[1,2-α]pyridin-3-yl]-N-cyclopentyl-2-pyrimidinamine] |
| 370 | COc1cccc(-c2nc3c(NC4CCCC4)cccn3c2-c2ccnc(NC3CCCC3)n2)c1 [Example 16, N-Cyclopentyl-3-[2-(cyclopentylamino)-4-pyrimidinyl]-2-(3-methoxyphenyl)imidazo[1,2-α]pyridin-8-amine] |
| 3100 | Oc1cccc(-c2nc3c(NC4CCCC4)cccn3c2-c2ccnc(NC3CCCC3)n2)c1 [Example 17, 3-{8-(Cyclopentylamino)-3-[2-(cyclopentylamino)-4-pyrimidinyl]imidazo[1,2-α]pyridin-2-yl}phenol] |
| 340 | C=CCOc1cccc(-c2nc3c(NC4CCCC4)cccn3c2-c2ccnc(NC3CCCC3)n2)c1 [Example 18, 2-[3-(Allyloxy)phenyl]-N-cyclopentyl-3-[2-(cyclopentylamino)-4-pyrimidinyl]imidazo[1,2-α]pyridin-8-amine] |
| 3740 | Cc1ccc(-c2nc3c(Cl)cccn3c2-c2ccnc(NC3CCCC3)n2)cc1 [Example 19, 4-[8-Chloro-2-(4-methylphenyl)imidazo[1,2-α]pyridin-3-yl]-N-cyclopentyl-2-pyrimidinamine] |
| 710 | Cc1ccc(-c2nc3c(NC4CCCC4)cccn3c2-c2ccnc(NC3CCCC3)n2)cc1 [Example 20, N-Cyclopentyl-3-[2-(cyclopentylamino)-4-pyrimidinyl]-2-(4-methylphenyl)imidazo[1,2-α]pyridin-8-amine] |
| 640 | COCCNc1cccn2c(-c3ccnc(NC4CCCC4)n3)c(-c3ccc(C)cc3)nc12 [Example 21, 3-[2-(Cyclopentylamino)-4-pyrimidinyl]-N-(2-methoxyethyl)-2-(4-methylphenyl)imidazo[1,2-α]pyridin-8-amine] |
| 840 | Cc1ccc(-c2nc3c(N4CCOCC4)cccn3c2-c2ccnc(NC3CCCC3)n2)cc1 [Example 22, N-Cyclopentyl-4-[2-(4-methylphenyl)-8-(4-morpholinyl)imidazo[1,2-α]pyridin-3-yl]-2-pyrimidinamine] |
| 210 | Clc1cccn2c(-c3ccnc(NC4CC4)n3)c(-c3ccc4ccccc4c3)nc12 [Example 23, 4-[8-Chloro-2-(2-naphthyl)imidazo[1,2-α]pyridin-3-yl]-N-cyclopropyl-2-pyrimidinamine] |
| 560 | c1ccc2cc(-c3nc4c(NC5CC5)cccn4c3-c3ccnc(NC4CC4)n3)ccc2c1 [Example 24, N-Cyclopropyl-3-[2-(cyclopropylamino)-4-pyrimidinyl]-2-(2-naphthyl)imidazo[1,2-α]pyridin-8-amine] |
| 300 | N#Cc1ccc(-c2nc3c(Cl)cccn3c2-c2ccnc(NC3CCCC3)n2)cc1 [Example 25, 4-{8-Chloro-3-[2-(cyclopentylamino)-4-pyrimidinyl]imidazo[1,2-α]pyridin-2-yl}benzonitrile] |
| 310 | N#Cc1ccc(-c2nc3c(NC4CCCC4)cccn3c2-c2ccnc(NC3CCCC3)n2)cc1 [Example 26, 4-{8-(Cyclopentylamino)-3-[2-(cyclopentylamino)-4-pyrimidinyl]imidazo[1,2-α]pyridin-2-yl}benzonitrile] |
| 200 | N#Cc1ccc(-c2nc3c(N4CCOCC4)cccn3c2-c2ccnc(NC3CCCC3)n2)cc1 [Example 27, 4-[3-[2-(Cyclopentylamino)-4-pyrimidinyl]-8-(4-morpholinyl)-imidazo[1,2-α]pyridin-2-yl]benzonitrile] |
| 6300 | NC(=O)c1ccc(-c2nc3c(N4CCOCC4)cccn3c2-c2ccnc(NC3CCCC3)n2)cc1 [Example 28, 4-[3-[2-(Cyclopentylamino)-4-pyrimidinyl]-8-(4-morpholinyl)imidazo[1,2-α]pyridin-2-yl]benzamide] |
| > 5000 | NC(=O)c1ccc(-c2nc3c(NC4CCCC4)cccn3c2-c2ccnc(NC3CCCC3)n2)cc1 [Example 29, 4-{8-(Cyclopentylamino)-3-[2-(cyclopentylamino)-4-pyrimidinyl]imidazo[1,2-α]pyridin-2-yl}benzamide] |
| 1600 | O=[N+]([O-])c1cccc(-c2nc3c(Cl)cccn3c2-c2ccnc(NC3CCCC3)n2)c1 [Example 30, N-{4-[8-Chloro-2-(3-nitrophenyl)imidazo[1,2-α]pyridin-3-yl]-2-pyrimidinyl}-N-cyclopentylamine] |
